Measurements reported in PubChem BioAssay (NCI).
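1) Cells in 96-well plates. 2) Compound, 48 h, 5 concentrations. 3) Linear interpolation between surrounding doses. 4) Unreached endpoint = highest concentration. At the TGI there is no net growth.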

How the values were obtained:
Assay in all cases: growth of human tumour cells (NCI), 48 h
HCT-116 colon = test system: HCT-116 colon
SF-539 CNS = test system: SF-539 CNS
M19-MEL melanoma = test system: M19-MEL melanoma
TK-10 renal = test system: TK-10 renal
DLD-1 colon = test system: DLD-1 colon
NCI-H23 lung = test system: NCI-H23 lung
ACHN renal = test system: ACHN renal
COLO 205 colon = test system: COLO 205 colon
NCI-H522 lung = test system: NCI-H522 lung
SNB-19 CNS = test system: SNB-19 CNS
HL-60(TB) leukemia = test system: HL-60(TB) leukemia
K-562 leukemia = test system: K-562 leukemia
U251 CNS = test system: U251 CNS
OVCAR-5 ovarian = test system: OVCAR-5 ovarian
SW-620 colon = test system: SW-620 colon
HT29 colon = test system: HT29 colon
SK-MEL-28 melanoma = test system: SK-MEL-28 melanoma
A549 NSCLC = test system: A549 NSCLC
DMS 114 small cell lung = test system: DMS 114 small cell lung
DMS 273 small cell lung = test system: DMS 273 small cell lung
LXFL 529 NSCLC = test system: LXFL 529 NSCLC
786-0 renal = test system: 786-0 renal
CAKI-1 renal = test system: CAKI-1 renal
SNB-75 CNS = test system: SNB-75 CNS
A498 renal = test system: A498 renal
SK-MEL-2 melanoma = test system: SK-MEL-2 melanoma
RPMI-8226 leukemia = test system: RPMI-8226 leukemia
SF-268 CNS = test system: SF-268 CNS
SK-OV-3 ovarian = test system: SK-OV-3 ovarian
HOP-92 NSCLC = test system: HOP-92 NSCLC
EKVX NSCLC = test system: EKVX NSCLC
SF-295 CNS = test system: SF-295 CNS
UACC-257 melanoma = test system: UACC-257 melanoma
IGROV1 ovarian = test system: IGROV1 ovarian
OVCAR-3 ovarian = test system: OVCAR-3 ovarian
SN12C renal = test system: SN12C renal
MOLT-4 leukemia = test system: MOLT-4 leukemia
MALME-3M melanoma = test system: MALME-3M melanoma
RXF 393 renal = test system: RXF 393 renal
UACC-62 melanoma = test system: UACC-62 melanoma
KM12 colon = test system: KM12 colon
OVCAR-8 ovarian = test system: OVCAR-8 ovarian
SNB-78 CNS = test system: SNB-78 CNS
HCC-2998 colon = test system: HCC-2998 colon
NCI-H226 lung = test system: NCI-H226 lung
UO-31 renal = test system: UO-31 renal
SR leukemia = test system: SR leukemia
SK-MEL-5 melanoma = test system: SK-MEL-5 melanoma
CCRF-CEM leukemia = test system: CCRF-CEM leukemia
NCI-H460 lung = test system: NCI-H460 lung
HOP-18 NSCLC = test system: HOP-18 NSCLC
M14 melanoma = test system: M14 melanoma
LOX IMVI melanoma = test system: LOX IMVI melanoma
KM20L2 colon = test system: KM20L2 colon
HOP-62 NSCLC = test system: HOP-62 NSCLC
HCT-15 colon = test system: HCT-15 colon
OVCAR-4 ovarian = test system: OVCAR-4 ovarian

Measured: TGI

ClCCC[Si]12OCCN(CCO1)CCO2
> 100 µM: HCT-116 colon | SF-539 CNS | M19-MEL melanoma | TK-10 renal | DLD-1 colon | NCI-H23 lung | ACHN renal | COLO 205 colon | NCI-H522 lung | SNB-19 CNS | HL-60(TB) leukemia | K-562 leukemia | U251 CNS | OVCAR-5 ovarian | SW-620 colon | HT29 colon | SK-MEL-28 melanoma | A549 NSCLC | DMS 114 small cell lung | DMS 273 small cell lung | LXFL 529 NSCLC | 786-0 renal | CAKI-1 renal | SNB-75 CNS | A498 renal | SK-MEL-2 melanoma | RPMI-8226 leukemia | SF-268 CNS | SK-OV-3 ovarian | HOP-92 NSCLC | EKVX NSCLC | SF-295 CNS | UACC-257 melanoma | IGROV1 ovarian | OVCAR-3 ovarian | SN12C renal | MOLT-4 leukemia | MALME-3M melanoma | RXF 393 renal | UACC-62 melanoma | KM12 colon | OVCAR-8 ovarian | SNB-78 CNS | HCC-2998 colon | NCI-H226 lung | UO-31 renal | SR leukemia | SK-MEL-5 melanoma | CCRF-CEM leukemia | NCI-H460 lung

O=c1[nH]cnc2c(COCCCO)c[nH]c12
> 100 µM: HCT-116 colon | HOP-18 NSCLC | M19-MEL melanoma | TK-10 renal | DLD-1 colon | NCI-H23 lung | ACHN renal | COLO 205 colon | NCI-H522 lung | M14 melanoma | SNB-19 CNS | HL-60(TB) leukemia | K-562 leukemia | LOX IMVI melanoma | U251 CNS | OVCAR-5 ovarian | SW-620 colon | HT29 colon | SK-MEL-28 melanoma | KM20L2 colon | A549 NSCLC | DMS 114 small cell lung | LXFL 529 NSCLC | 786-0 renal | CAKI-1 renal | SNB-75 CNS | HOP-62 NSCLC | HCT-15 colon | SK-MEL-2 melanoma | RPMI-8226 leukemia | SF-268 CNS | SK-OV-3 ovarian | HOP-92 NSCLC | EKVX NSCLC | SF-295 CNS | UACC-257 melanoma | IGROV1 ovarian | OVCAR-3 ovarian | SN12C renal | MOLT-4 leukemia | MALME-3M melanoma | RXF 393 renal | UACC-62 melanoma | KM12 colon | OVCAR-8 ovarian | SNB-78 CNS | UO-31 renal | SR leukemia | SK-MEL-5 melanoma | CCRF-CEM leukemia

Cn1c(=O)c2nc3c4ccccc4c(=O)n(C)c3nc2n(C)c1=O
> 100 µM: HCT-116 colon | SF-539 CNS | M19-MEL melanoma | TK-10 renal | NCI-H23 lung | ACHN renal | COLO 205 colon | SNB-19 CNS | K-562 leukemia | U251 CNS | OVCAR-5 ovarian | SW-620 colon | HT29 colon | SK-MEL-28 melanoma | KM20L2 colon | A549 NSCLC | DMS 114 small cell lung | LXFL 529 NSCLC | 786-0 renal | SNB-75 CNS | HCT-15 colon | SK-MEL-2 melanoma | RPMI-8226 leukemia | SF-268 CNS | SK-OV-3 ovarian | HOP-92 NSCLC | EKVX NSCLC | SF-295 CNS | UACC-257 melanoma | IGROV1 ovarian | OVCAR-3 ovarian | SN12C renal | MOLT-4 leukemia | MALME-3M melanoma | RXF 393 renal | UACC-62 melanoma | KM12 colon | OVCAR-8 ovarian | SNB-78 CNS | HCC-2998 colon | NCI-H226 lung | UO-31 renal | SR leukemia | SK-MEL-5 melanoma

CCN=C1Nc2ccccc2-n2c(nn3nc4ccccc4c23)N1CC
> 100 µM: HCT-116 colon | SF-539 CNS | HOP-18 NSCLC | M19-MEL melanoma | OVCAR-4 ovarian | DLD-1 colon | NCI-H23 lung | ACHN renal | COLO 205 colon | NCI-H522 lung | M14 melanoma | SNB-19 CNS | HL-60(TB) leukemia | K-562 leukemia | LOX IMVI melanoma | U251 CNS | OVCAR-5 ovarian | SW-620 colon | HT29 colon | SK-MEL-28 melanoma | KM20L2 colon | A549 NSCLC | DMS 114 small cell lung | DMS 273 small cell lung | LXFL 529 NSCLC | 786-0 renal | SNB-75 CNS | A498 renal | HOP-62 NSCLC | HCT-15 colon | RPMI-8226 leukemia | SF-268 CNS | HOP-92 NSCLC | EKVX NSCLC | SF-295 CNS | UACC-257 melanoma | IGROV1 ovarian | SN12C renal | MOLT-4 leukemia | RXF 393 renal | UACC-62 melanoma | KM12 colon | OVCAR-8 ovarian | NCI-H226 lung | SR leukemia | SK-MEL-5 melanoma | CCRF-CEM leukemia | NCI-H460 lung
